US20060069132A1, “Azolecarboxamide herbicides” (priority 2004, published 2006)

Test system: ducksalad
Assay: Test C flooded paddy test
Format: in vivo, Heteranthera limosa
Details: for Plant response rating, Ducksalad: visual rating after 12 to 14 days
[1] = 62 g ai/ha, scale 0 to 100 (0 no effect, 100 complete control)
[2] = 125 g ai/ha, scale of 0 to 100, 0 is no effect, 100 is complete control
[3] = 500 g ai/ha, scale 0 to 100 (0 no effect, 100 complete control)
[4] = 250 g ai/ha, scale of 0 to 100, 0 is no effect, 100 is complete control
[5] = 125 g ai/ha, scale 0 to 100 (0 no effect, 100 complete control)

Row | SMILES | Ducksalad plant response rating [1] | Ducksalad plant response rating [2] | Plant response rating, Ducksalad (250 g ai/ha, scale 0 to 100 (0 no effect, 100 complete control)) | Plant response rating, Ducksalad [3] | Ducksalad plant response rating [4] | Ducksalad plant response rating [5] | Ducksalad plant response rating (62 g ai/ha, scale 0 to 100)
1 | CCn1nc(C(C)(C)C)cc1C(=O)Nc1cccc(C(=O)NCCF)c1 [Compound 45] | 0 | 0 | 60 | 60 | – | – | –
2 | CCn1nc(C(C)(C)C)cc1C(=O)Nc1cccc(C(=O)NC(C)C)c1 [Compound 51] | 0 | 55 | – | 85 | 75 | – | –
3 | CCn1nc(C(C)(C)C)cc1C(=O)Nc1cccc(C(C)=O)c1 [Compound 122] | 50 | 80 | – | 80 | 80 | – | –
4 | CCOc1cccc(NC(=O)c2cc(C(C)(C)C)nn2CC)c1 [Compound 136] | 0 | – | – | 90 | 45 | 0 | –
5 | CCn1nc(C(C)(C)C)cc1C(=O)Nc1cccc(OCCCF)c1 [Compound 138] | 0 | – | – | 70 | 55 | 20 | –
6 | CCn1nc(C(C)(C)C)cc1C(=O)Nc1cc(C(=O)NCC2CC2)ccn1 [Compound 155] | 45 | – | – | 90 | 85 | 80 | –
7 | CCc1nc(C(C)(C)C)sc1C(=O)Nc1cccc(C(=O)NCCF)c1 [Compound 209] | 65 | – | – | 80 | 65 | 65 | –
8 | CCc1nc(C(C)(C)C)sc1C(=O)Nc1cccc(C(=O)NC(C)(C)C)n1 [Compound 216] | 0 | – | – | 40 | 30 | 20 | –
9 | CCNC(=O)c1ccc(F)c(NC(=O)c2cc(C(C)(C)C)nn2CC)n1 [Compound 278] | – | – | – | 20 | 0 | 0 | 0
10 | CCn1nc(C(C)(C)C)cc1C(=O)Nc1nc(C(=O)N2CC=CC2)ccc1F [Compound 281] | – | – | – | 85 | 70 | 0 | 0
11 | C#CCNC(=O)c1cc(NC(=O)c2cc(C(C)(C)C)nn2CC)ccn1 [Compound 283] | – | – | – | 0 | 0 | 0 | 0
12 | CCn1nc(C(C)(C)C)cc1C(=O)Nc1cncc(C(=O)N2CC=CC2)n1 [Compound 290] | – | – | – | 70 | 45 | 0 | 0
13 | C#CCNC(=O)c1cccc(NC(=O)c2sc(C(C)(C)C)nc2CC)c1 [Compound 319] | – | – | – | 85 | 45 | 0 | 0
14 | CCn1nc(C(C)(C)C)cc1C(=O)Nc1cccc(OS(=O)(=O)CC)c1 [Compound 408] | – | – | – | 95 | 95 | 85 | 65
15 | CCN(C(C)=O)C(=O)c1ccc(F)c(NC(=O)c2cc(C(C)(C)C)nn2CC)c1 [Compound 413] | – | – | – | 70 | 70 | 45 | 15
